One compound from patent US12239644B2, “Composition for prevention or treatment of macular degeneration” (KYUNGPOOK NATIONAL UNIVERSITY INDUSTRY-ACADEMIC COOPERATION …, priority 2018, dated 2025) can be followed below.

Where two headings read alike, the source gives them in different places.

One assay deals with laser-induced CNV models. Conditions: C57BL/6J mice, 50 mg/kg orally for 8 days, one week after laser. Here is the method: (§1) Statistical analyses were performed using the Prism program, with statistical significance defined as p<0.05.
In assay [1] the test system is laser-induced choroid neovascularization (CNV) models. As to conditions: C57BL/6J mice, 50 mg/kg orally for 8 days, one week after laser. As for the experimental part: as §1
Another assay has as its system HIF-1α. As to conditions: ARPE-19 cells, 1% oxygen 4-6 hours, fursultiamine-HCl 20, 50, 100 μM. Here is the method: After hypoxic exposure for 4-6 hours, the cells were lysed with a protein lysis buffer and protein isolation from the lysate was conducted.
The test system of a further assay is VEGF. Conditions: ARPE-19 medium. Here is the method: ARPE-19 cells were seeded into 60-mm dishes and incubated overnight to adhere to the dishes. On the next day, the medium was replaced with serum-free medium. The cells were treated with fursultiamine-HCl (Toronto research chemical, F865230) or a vehicle (DMSO, Sigma-Aldrich) at the specific concentrations of 0 μM, 50 μM, and 100 μM and then exposed to 1% oxygen condition in a hypoxic chamber (INVIVO2 400, Baker). After hypoxic exposure for 4-6 hours, the cells were lysed with a protein lysis buffer and protein isolation from the lysate was conducted.
After 12 hours later, the medium was recovered and secreted levels of VEGF in the medium were measured using human VEGF enzyme linked immunoassay (ELISA) (R&D systems). Quantitation methods and concentration calculations were conducted according to the manufacturer's manual. Statistical analyses were performed using the Prism program, with statistical significance defined as p<0.05.

For assay [2], the system named is choroidal vascular endothelial cells. As to conditions: C57BL/6J choroid/sclera in Matrigel, day 3 to 5. As for the experimental part: Effects of fursultiamine on the growth of choroidal vascular endothelial cells were evaluated by the ex vivo mouse choroid sprouting assay for age-related macular degeneration.
The eyeball was resected from C57BL/6J mice (Jackson Laboratory) at 3 or 4 weeks of age and the choroid/sclera was separated therefrom and sectioned into a size of 1 mm×1 mm. After being thawed on ice, Matrigel (Becton Dickinson, BD matrigel) in a liquid state was added in an amount of 300 μl to each well of 24-well plates and one of the cut choroid/sclera segments was seeded in the Matrigel in each well. Then, Matrigel was solidified for 10 min in a 37° C. incubator before adding 500 μl of an EGM medium (Lonza, Endothelial Growth Medium) to each well.
Subsequently, the growth of vascular endothelial cells was induced in a 37° C. incubator. The medium was exchanged every two days with a fresh one containing 20 μM or 50 μM fursultiamine-HCl. The growth of vascular endothelial cells from the choroid was monitored from the day of seeding the choroid/sclera and observed on day 3 to 5. The sprouting distances were measured at a total of 4 sites using the ImageJ software and averaged. Statistical analyses were performed with the Prism program, with statistical significance defined as p<0.05.

A further assay has as its system ARPE-19 cells. As to conditions: ARPE-19, LPS 10 ug/ml + fursultiamine 50 uM (24 h).

Description for ARPE-19 cells: To be specific, ARPE-19 cells were seeded onto 96-well XF plates, with the exchange of a fresh medium every two days. On day 5 after cell seeding, the cells were treated with 10 μg/ml LPS (lipopolysaccharides, Sigma-Aldrich) and then with 50 μM fursultiamine on day 6. On day 7, the medium was exchanged with an XF medium (Seahorse XF DMEM medium, Agilent) and the plates were left for 30 min at 37° C. in a non-CO2 incubator.
In order to assess mitochondrial spare capacity, the following mitochondrial electron transport inhibitors and respiratory uncouplers were used in corresponding steps: oligomycin (2 μM), FCCP (0.5 μM), rotenone (2 μM), and antimycin A (2 μM).
The oxygen consumption rate (OCR) was measured using an XFe96 analyzer (Agilent) according to the manufacturer's manual.

Take `CC(=C(CCO)SSCC1CCCO1)N(C=O)Cc1cnc(C)nc1N` (stereo in doubt) [Fursultiamine, thiamine tetrahydrofurfuryl disulfide]: in the assay on laser-induced CNV models, the “Lesion size (10^−3mm^2)” value is on record as 15.7 ± 1.0 10^−3mm^2. Moreover, the “vascular leakage for the late phase” value in assay [1] is “decreased”. Besides, the “expression of HIF-1α upregulated in the hypoxic condition” value with HIF-1α is listed as “reduced”. Besides, the “VEGF” value in the assay with VEGF (1% O2, Fursultiamine 50 μM) is 163.4 ± 7.4 pg/mL; in the assay with VEGF (1% O2, Fursultiamine 100 μM), 47.4 ± 4.6 pg/mL. In addition, the “Sprouting range (pixels)” value is on record as 229.926 ± 28.348 pixels in assay [2] (Fursultiamine 20 uM) and 126.713 ± 22.810 pixels in assay [2] (Fursultiamine 50 uM). Further, the “OCR (%) (mitochondrial spare capacity)” value in the assay with ARPE-19 cells is 189.438 ± 21.392%.
